In test [1] the test system is Medicago sativa. Kind of test: Post-emergence herbicidal activity against Medicago sativa (alfalfa) assessed as growth inhibition at 1.5 ai kg/ha under green house conditions. The format is functional.
For test [2], the system named is Amaranthus retroflexus. Kind of test: Post-emergence herbicidal activity against Amaranthus retroflexus assessed as growth inhibition at 1.5 ai kg/ha under green house conditions. The class given is functional.
The subject of test [3] is Digitaria sanguinalis. Kind of test: Pre-emergence herbicidal activity against Digitaria sanguinalis (hairy crabgrass) assessed as growth inhibition at 1.5 ai kg/ha under green house conditions. The class given is functional.
The subject of the next test is Cucumis sativus. Kind of test: Pre-emergence growth inhibition of Cucumis sativus (cucumber) under green house conditions. The format is functional, organism-based.
Test [4] has as its system Amaranthus retroflexus. Kind of test: Pre-emergence herbicidal activity against Amaranthus retroflexus assessed as growth inhibition at 1.5 ai kg/ha under green house conditions. The format is functional.
The subject of test [5] is Echinochloa crus-galli. Kind of test: Pre-emergence herbicidal activity against Echinochloa crus-galli (barnyard grass) assessed as growth inhibition at 1.5 ai kg/ha under green house conditions. The class given is functional.
The test system of test [6] is Brassica napus. Kind of test: Pre-emergence herbicidal activity against Brassica napus (oilseed rape) assessed as growth inhibition at 1.5 ai kg/ha under green house conditions. The class given is functional.
In test [7] the test system is Brassica napus. Kind of test: Post-emergence herbicidal activity against Brassica napus (oilseed rape) assessed as growth inhibition at 1.5 ai kg/ha under green house conditions. The format is functional.
Test [8] concerns Digitaria sanguinalis. Kind of test: Post-emergence herbicidal activity against Digitaria sanguinalis (hairy crabgrass) assessed as growth inhibition at 1.5 ai kg/ha under green house conditions. The format is functional.
For test [9], the system named is Medicago sativa. Kind of test: Pre-emergence herbicidal activity against Medicago sativa (alfalfa) assessed as growth inhibition at 1.5 ai kg/ha under green house conditions. The class given is functional.
Test [10] concerns Echinochloa crus-galli. Kind of test: Post-emergence herbicidal activity against Echinochloa crus-galli (barnyard grass) assessed as growth inhibition at 1.5 ai kg/ha under green house conditions. The class given is functional.

Consider `O=C(O)COc1ccc(Cl)cc1Cl` [2,4-DICHLOROPHENOXYACETIC ACID], for which the “growth inhibition (GI)” value in the test on Medicago sativa [1] is given as 95.5%; with Amaranthus retroflexus [2] it was 100%; with Digitaria sanguinalis [3], 88.7%; with Amaranthus retroflexus [4], 95.5%; in the test on Echinochloa crus-galli [5], 80%; in the test on Brassica napus [6], 100%. Also, the “growth inhibition (GI)” value with Brassica napus [7] worked out at 89.13%; in the test on Digitaria sanguinalis [8], 59.6%; with Medicago sativa [9], 90%; in the test on Echinochloa crus-galli [10] it was 54.5%. The molecule also gave an IC50 with Cucumis sativus of 0.1379 µg/g.

For the molecule `COP(=O)([O-])COC(=O)COc1ccc(Cl)cc1Cl.[Na+]`, the “growth inhibition (GI)” value in the test with Medicago sativa [1] came to 92.5%; with Amaranthus retroflexus [2], 100%; in the test on Digitaria sanguinalis [3], 90.3%; in the test with Amaranthus retroflexus [4], 96.6%; with Echinochloa crus-galli [5], 84.6%; in the test on Brassica napus [6], 96.6%. Moreover, the “growth inhibition (GI)” value in the test with Brassica napus [7] was 97.7%; in the test with Digitaria sanguinalis [8] it was 28.6%; in the test with Medicago sativa [9] it was 100%; in the test with Echinochloa crus-galli [10], 28%. For the same molecule, the IC50 with Cucumis sativus is 0.31 µg/g.

In the case of `CCCC(OC(=O)COc1ccc(Cl)cc1Cl)P(=O)([O-])OC.[K+]` (stereo not drawn), the “growth inhibition (GI)” value with Medicago sativa [1] is recorded as 91.2%; in the test with Amaranthus retroflexus [2], 38.5%; in the test on Digitaria sanguinalis [3], 35.2%; with Amaranthus retroflexus [4], 18.6%; in the test with Echinochloa crus-galli [5], 32.1%; in the test on Brassica napus [6] it was 37%. The “growth inhibition (GI)” value with Brassica napus [7] stood at 42.6%; in the test on Digitaria sanguinalis [8], 38.9%; with Medicago sativa [9], 10.2%; in the test with Echinochloa crus-galli [10] it was 33.8%. Moreover, the IC50 in the test with Cucumis sativus came to 4.21 µg/g.

Values taken from ChEMBL document CHEMBL3044810, “Synthesis and herbicidal activity of alkyl 1-(3-trifluoromethylphenoxyacetoxy)-1-substituted methylphosphonates” (J Pestic Sci, 2007).
